Assays:
Format in all cases: cell-based
MRGPRX2 [1] = molecular target: T1, MRGPRX2 (Homo sapiens, UniProt Q96LB1); assay: MRGPRX2 β-Arrestin assay; parameters: host or cells: PathHunter CHO-K1; conditions: PathHunter CHO-K1 MRGPRX2 β-Arrestin cell line; agonist Cortistatin 14 0.25 μM
T1 sequence (Q96LB1 1-330): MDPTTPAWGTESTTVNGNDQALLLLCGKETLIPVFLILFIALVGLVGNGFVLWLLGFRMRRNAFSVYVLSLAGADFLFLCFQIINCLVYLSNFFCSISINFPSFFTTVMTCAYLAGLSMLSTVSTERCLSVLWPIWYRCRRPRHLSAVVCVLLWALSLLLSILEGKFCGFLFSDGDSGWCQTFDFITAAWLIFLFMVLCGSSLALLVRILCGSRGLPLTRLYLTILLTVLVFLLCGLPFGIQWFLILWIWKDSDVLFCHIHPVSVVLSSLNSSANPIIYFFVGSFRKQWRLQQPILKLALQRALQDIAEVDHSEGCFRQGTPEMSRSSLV
Text: This assay measures compound inhibition of β-Arrestin recruitment, which is part of the G protein-independent pathway that results from the ligand-activated GPCR phosphorylation by specific GPCR kinases. The PathHunter CHO-K1 MRPGRX2 B-Arrestin Cell line stably expressing ProLink tagged MRGPRX2 and Enzyme Acceptor Tagged B-Arrestin was purchased from Eurofins DiscoverX, (Fremont, CA).
The cells were maintained in culture medium from the Europhins DiscoverX Cell Culture Kit-107 which includes FBS, hygromycin B and G418. For the assay, the cells were harvested and were resuspended with Cell Plating Reagent 2 (Eurofins DiscoverX). Cells were added 10000 cells in 25 μL/well to a 384-well black cell culture plate (Greiner VWR, Radnor, PA) which contained 125 nL/well of compound at a selected serially diluted concentration range or DMSO. The plate was incubated at 37° C. with 5% CO2 for 1 h. 2 μL/well of agonist Cortistatin 14 was diluted in Protein Dilution Buffer, (Eurofins DiscoverX) for a final concentration of 0.25 μM, was added and the plate was incubated at 37° C. with 5% CO2 for 90 min. 14 μL/well of Detection Reagent Mix (PathHunter Detection Kit, Eurofins DiscoverX) was added to the plates and further incubated for 1 h in the dark. Plates were read on the PHERAstar microplate reader (BMG Labtech Cary, NC) measuring luminescence 0.1 to 1 s per well. […]

MRGPRX2 [2] = molecular target: T1, MRGPRX2; assay: MRGPRX2 FLIPR calcium mobilization assay; parameters: host or cells: CHO-K1; conditions: CHO-K1 cells stably expressing human MRGPRX2; agonist Cortistatin-14 at EC80; Ca2+ release
Method: Chinese hamster ovary (CHO-K1) cells stably expressing human MRGPRX2 were purchased from Genescript (Piscataway, NJ). The cells were maintained in culture medium (Ham's F-12K) containing 10% (v/v) FBS, 200 μg/mL Zeocin, 100 units/mL penicillin G and 100 μg/mL streptomycin (Life Technologies, Carlsbad, CA). For the assay, the cells were harvested and resuspended with culture medium without Zeocin before plating at 8000 cells per well in 20 μL in 384-well black clear bottom cell culture plates (VWR, Radnor, PA). After 24 h culture at 37° C. and 5% CO2, the cells were loaded with 20 μL/well of calcium dye (FLIPR Calcium 6 Assay Kit, Molecular Devices, San Jose, CA) diluted in loading buffer (1× Hank's Balanced Salt Solution (HBSS), 5 mM probenecid, 20 mM 4-(2-hydroxyethyl)-1-piperazineethanesulfonic acid (HEPES), pH 7.4, VWR, Radnor, PA) followed with 45 min. incubation at 37° C. and 40 min. at r.t. in the dark. Cells were then treated with the addition of 10 uL/well test compounds with a range of increasing concentrations diluted in the assay buffer (1×HBSS, 20 mM HEPES, pH 7.4, VWR, Radnor, PA) with FLIPR Penta (Molecular Devices. San Jose, CA) and incubated for 30 min. at r.t. Ca^2+ release was measured with FLIPR Penta with 10 s basal fluorescence measurement, then 12.5 μL of 5× agonist Cortistatin-14 (Tocris, Minneapolis, MN) at final concentration corresponding to the EC80 were added followed with continued fluorescence signal monitoring for an additional 110 s. The base line adjusted (median of first 10s base line) max value of the Relative Fluorescence Unit (RFU) was plotted against compound concentrations. Wells with no compound were served as the positive controls, and wells with high concentration of reference antagonist were used as negative controls. IC50 curves were globally fitted with 3- or 4-parameter Hill equation in a Genedata Screener (Genedata Basel, Switzerland).

MRGPRX2 [3] = molecular target: T1, MRGPRX2; assay: MRGPRX2 IP1 HTRF assay; parameters: host or cells: CHO-K1; conditions: CHO-K1 cells stably expressing human MRGPRX2; agonist Cortistatin 14 1 μM; IP1 accumulation
Method: This assay measures compound inhibition of myo-Inositol 1 phosphate (IP1) accumulation in CHO-K1 cells. Chinese hamster ovary (CHO-K1) cells stably expressing human MRGPRX2 were purchased from GenScript (Piscataway, NJ).
For the HTRF IP1 determination, an IP-One GqKit (Perkin Elmer Cisbio, Waltham, MA), which includes all reagents and buffers in this protocol, was used. The cells were maintained in culture medium (Ham's F-12K) containing 10% (v/v) FBS, and 200 μg/mL Zeocin. For the assay, the cells were harvested and resuspended in culture medium with 2% FBS and without Zeocin, then were passed through a 40 μm filter. Cells were added at 20000 cells in a 5 μL/well to a 384-well white small volume cell culture plate (Greiner VWR, Radnor, PA) which contained 50 nL/well of test compound serially diluted at a selected concentration range in DMSO. 5 μL/well of prepared 2× Stimulation Buffer2 was then added to plates and was incubated at 37° C. with 5% CO2 for 1 h. 5 μL/well of agonist Cortistatin 14 (Bio-TechneR&D Systems, Minneapolis, MN) in 1×Stimulation Buffer 2, for a 1 μM final concentration, was then added to plates and incubated at 37° C. with 5% CO2 for 1 h. 6 μL/well of 1:20 diluted Detection Reagent Mix (d2 and Cryptate) was added to the plates and incubated for 1 h in the dark. Plates were read on the PHERAstar microplate reader (BMG Labtech Cary, NC) to determine the HTRF ratio of the acceptor and donor emission signals. The IP1 concentrations were calculated from a standard curve following the IP-One GQ kit instructions. Wells with DMSO only and wells with high concentration of reference antagonist were used as controls for normalization. Compound IC50 curves were globally fitted with 3- or 4-parameter Hill equation in a Genedata Screener (Genedata Basel, Switzerland).

IC50 (MRGPRX2 [1]) [nM]	IC50 (MRGPRX2 [2]) [nM]	IC50 (MRGPRX2 [3]) [nM]	SMILES
0.1 to 100	0.1 to 100	0.1 to 100	FC(F)(F)c1cn2c(N[C@H]3CCC[C@@H](Nc4nccc5ncccc45)C3)cccc2n1 [Example 3, (1R,3S)—N^1-(1,6-Naphthyridin-5-yl)-N^3-(2-(trifluoromethyl)imidazo[1,2-a]pyridin-5-yl)cyclohexane-1,3-diamine]
0.1 to 100	0.1 to 100	0.1 to 100	FC(F)(F)c1cn2c(N[C@H]3CC[C@@H](Nc4nccn5cncc45)CC3)cccc2n1 [Example 5, (1s,4s)-N^1-(Imidazo[1,5-a]pyrazin-8-yl)-N^4-(2-(trifluoromethyl)imidazo[1,2-a]pyridin-5-yl)cyclohexane-1,4-diamine]
